Reference: PubChem BioAssay AID248 (DTP/NCI, 2004)
Values joined by “and” are separate entries in the source; they are usually repeats but may differ in a detail not shown here. Equal entries are not always repeated. Inconclusive results and toxic doses are left out. Rule as the data show it: active = T/C of 150% or more; inactive = T/C below 125%.

Test system: L1210 leukemia ip in BDF1 mice, survival T/C
Assay: NCI In Vivo Anticancer Drug Screen. Data for tumor model L1210 Leukemia (intraperitoneal) in B6D2F1 (BDF1) mice
Conditions: endpoint: mean survival time, higher = longer survival
How it was run: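 Ratio derived from survival: compound-dosed mice over vehicle-dosed mice, all bearing a transplantable tumor.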

[1] = dose: 50.0 mg/kg/injection, schedule: Q01DX001 (ip), vehicle: carboxymethylcellulose (CMC)
[2] = dose: 100.0 mg/kg/injection, schedule: Q01DX001 (ip), vehicle: carboxymethylcellulose (CMC)
[3] = dose: 25.0 mg/kg/injection, schedule: Q01DX001 (ip), vehicle: saline
[4] = dose: 50.0 mg/kg/injection, schedule: Q01DX001 (ip), vehicle: saline
[5] = dose: 100.0 mg/kg/injection, schedule: Q01DX001 (ip), vehicle: saline
[6] = dose: 100.0 mg/kg/injection, schedule: Q01DX009 (ip), vehicle: Klucel (hydroxypropylcellulose) (HPC)
[7] = dose: 200.0 mg/kg/injection, schedule: Q01DX009 (ip), vehicle: Klucel (hydroxypropylcellulose) (HPC)
[8] = dose: 400.0 mg/kg/injection, schedule: Q01DX009 (ip), vehicle: Klucel (hydroxypropylcellulose) (HPC)
[9] = dose: 100.0 mg/kg/injection, schedule: Q04DX003 (ip), vehicle: saline
[10] = dose: 200.0 mg/kg/injection, schedule: Q04DX003 (ip), vehicle: saline
[11] = dose: 400.0 mg/kg/injection, schedule: Q04DX003 (ip), vehicle: saline
[12] = dose: 100.0 mg/kg/injection, schedule: Q04DX003 (ip), vehicle: Klucel (hydroxypropylcellulose) (HPC)
[13] = dose: 400.0 mg/kg/injection, schedule: Q04DX003 (ip), vehicle: Klucel (hydroxypropylcellulose) (HPC)
[14] = dose: 100.0 mg/kg/injection, schedule: Q04DX003 (ip), vehicle: saline with Tween-80
[15] = dose: 200.0 mg/kg/injection, schedule: Q04DX003 (ip), vehicle: saline with Tween-80
[16] = dose: 400.0 mg/kg/injection, schedule: Q04DX003 (ip), vehicle: saline with Tween-80
[17] = dose: 200.0 mg/kg/injection, schedule: Q01DX001 (ip), vehicle: saline
[18] = dose: 400.0 mg/kg/injection, schedule: Q01DX001 (ip), vehicle: saline

Measured: T/C

c1ccc(-c2ccns2)cc1
inactive: [1] 89 % of control | [2] 89 % of control | dose: 200.0 mg/kg/injection, schedule: Q01DX001 (ip), vehicle: carboxymethylcellulose (CMC) 93 % of control

O=c1c2ncn(C3OC(CO)C(O)C3O)c2nc2n1N=CC(O)N2 (configuration not stated)
inactive: dose: 100.0 mg/kg/injection, schedule: Q01DX005 (ip), vehicle: saline 120 % of control | dose: 200.0 mg/kg/injection, schedule: Q01DX005 (ip), vehicle: saline 120 % of control

O=C(NP(=O)(N1CC1)N1CC1)OCc1ccccc1
inactive: dose: 3.0 mg/kg/injection, schedule: Q01DX Z (ip), vehicle: saline 118 % of control and 122 % of control | dose: 3.13 mg/kg/injection, schedule: Q01DX006 (iv), vehicle: clinical formulation 118 % of control | dose: 3.13 mg/kg/injection, schedule: Q01DX009 (ip), vehicle: saline 118 % of control and 120 % of control | dose: 6.0 mg/kg/injection, schedule: Q01DX Z (ip), vehicle: saline 104 % of control | dose: 6.25 mg/kg/injection, schedule: Q01DX006 (iv), vehicle: clinical formulation 115 % of control | dose: 6.25 mg/kg/injection, schedule: Q01DX009 (ip), vehicle: saline 109 % of control and 121 % of control | dose: 10.0 mg/kg/injection, schedule: Q01DX006 (iv), vehicle: saline 117 % of control | dose: 12.5 mg/kg/injection, schedule: Q01DX001 (ip), vehicle: saline 93 % of control | dose: 12.5 mg/kg/injection, schedule: Q01DX006 (iv), vehicle: clinical formulation 120 % of control | dose: 12.5 mg/kg/injection, schedule: Q01DX009 (ip), vehicle: saline 97 % of control and 114 % of control | dose: 20.0 mg/kg/injection, schedule: Q01DX006 (iv), vehicle: saline 117 % of control | [3] 93 % of control | dose: 25.0 mg/kg/injection, schedule: Q01DX009 (ip), vehicle: saline 101 % of control and 109 % of control | dose: 48.0 mg/kg/injection, schedule: Q01DX Z (ip), vehicle: saline 123 % of control | [4] 103 % of control | dose: 50.0 mg/kg/injection, schedule: Q01DX009 (ip), vehicle: saline 124 % of control | dose: 50.0 mg/kg/injection, schedule: Q01DX010 (oral), vehicle: saline 100 % of control | [5] 98 % of control | dose: 100.0 mg/kg/injection, schedule: Q01DX010 (oral), vehicle: saline 111 % of control | dose: 200.0 mg/kg/injection, schedule: Q01DX010 (oral), vehicle: saline 105 % of control | dose: 400.0 mg/kg/injection, schedule: Q01DX010 (oral), vehicle: saline 106 % of control
active: dose: 12.0 mg/kg/injection, schedule: Q01DX Z (ip), vehicle: saline 196 % of control | dose: 50.0 mg/kg/injection, schedule: Q01DX006 (iv), vehicle: clinical formulation 153 % of control | dose: 80.0 mg/kg/injection, schedule: Q01DX006 (iv), vehicle: saline 156 % of control

CCOC(=O)c1ccc(NC(=O)Oc2ccc(C=O)cc2OC)cc1
inactive: [6] 93 % of control | [7] 101 % of control | [8] 95 % of control

Cn1cnc2nn[nH]c(=O)c21
inactive: [6] 94 % of control | [9] 92 % of control | [7] 96 % of control | [10] 92 % of control | [8] 90 % of control | [11] 95 % of control

O=C(/C=C(\CN1CCCCC1)c1ccccc1)c1ccccc1
inactive: [12] 96 % of control | [13] 96 % of control

CC(C)(C)c1ccc(SSc2ccc(C(C)(C)C)cc2)cc1
inactive: dose: 50.0 mg/kg/injection, schedule: Q01DX009 (ip), vehicle: Klucel (hydroxypropylcellulose) (HPC) 94 % of control | [6] 94 % of control | [12] 94 % of control | [7] 98 % of control | dose: 200.0 mg/kg/injection, schedule: Q04DX003 (ip), vehicle: Klucel (hydroxypropylcellulose) (HPC) 91 % of control | [8] 96 % of control | [13] 92 % of control

C=CCNC(C)=O
inactive: dose: 100.0 mg/kg/injection, schedule: Q01DX009 (ip), vehicle: saline 97 % of control | [9] 98 % of control | dose: 200.0 mg/kg/injection, schedule: Q01DX009 (ip), vehicle: saline 97 % of control | [10] 97 % of control | dose: 400.0 mg/kg/injection, schedule: Q01DX009 (ip), vehicle: saline 97 % of control

Cc1ccc(/C=N/NC(=O)c2ccccc2NC(=O)c2ccccc2)cc1
inactive: [6] 105 % of control | [7] 97 % of control | [8] 95 % of control

Cn1cc(Cc2ccccc2)c(=O)n(C)c1=O
inactive: [14] 100 % of control | [15] 100 % of control | [16] 106 % of control

O=C1OC(=O)C2C3C=CC(C12)C1C3C1N1C(=O)CCC1=O (configuration not stated)
inactive: dose: 50.0 mg/kg/injection, schedule: Q04DX003 (ip), vehicle: acetone 96 % of control | dose: 100.0 mg/kg/injection, schedule: Q04DX003 (ip), vehicle: acetone 88 % of control | dose: 200.0 mg/kg/injection, schedule: Q04DX003 (ip), vehicle: acetone 95 % of control

O=C(O)CCCOc1cc(Cl)c(Cl)cc1Cl
inactive: [1] 88 % of control | dose: 50.0 mg/kg/injection, schedule: Q01DX009 (ip), vehicle: gum acacia 98 % of control | dose: 50.0 mg/kg/injection, schedule: Q04DX003 (ip), vehicle: gum acacia 96 % of control | [2] 88 % of control | dose: 100.0 mg/kg/injection, schedule: Q01DX009 (ip), vehicle: gum acacia 100 % of control | dose: 100.0 mg/kg/injection, schedule: Q04DX003 (ip), vehicle: gum acacia 96 % of control | dose: 200.0 mg/kg/injection, schedule: Q01DX009 (ip), vehicle: gum acacia 93 % of control | dose: 200.0 mg/kg/injection, schedule: Q04DX003 (ip), vehicle: gum acacia 104 % of control

Nc1ccc(-c2ccc(-n3cccc3)cc2)cc1
inactive: [3] 100 % of control | [4] 96 % of control | [5] 109 % of control

O=C1Nc2ccc3c4c(ccc1c24)CC3
inactive: [4] 104 % of control | [5] 95 % of control | [17] 98 % of control | [18] 98 % of control

COc1ccc(Cl)cc1NC(=O)c1ccccc1Cl
inactive: [6] 95 % of control | [7] 102 % of control | [8] 101 % of control

Cc1cc(=O)c2cc(C(=O)c3ccccc3)ccc2[nH]1
inactive: [5] 101 % of control | [17] 98 % of control | [18] 107 % of control

COC(=O)[c-]1[c-][c-][c-][c-]1.COC(=O)[c-]1[c-][c-][c-][c-]1.[Fe]
inactive: dose: 12.5 mg/kg/injection, schedule: Q04DX003 (ip), vehicle: Klucel (hydroxypropylcellulose) (HPC) 94 % of control | dose: 25.0 mg/kg/injection, schedule: Q04DX003 (ip), vehicle: Klucel (hydroxypropylcellulose) (HPC) 90 % of control | dose: 50.0 mg/kg/injection, schedule: Q04DX003 (ip), vehicle: Klucel (hydroxypropylcellulose) (HPC) 90 % of control | dose: 75.0 mg/kg/injection, schedule: Q01DX009 (ip), vehicle: Klucel (hydroxypropylcellulose) (HPC) 103 % of control | dose: 115.0 mg/kg/injection, schedule: Q01DX009 (ip), vehicle: Klucel (hydroxypropylcellulose) (HPC) 93 % of control

Nc1nc(SCCO)nc2nc[nH]c12
inactive: [14] 96 % of control | [15] 95 % of control | [16] 90 % of control

CN(Cc1cccc(Cl)c1)C(=O)NC(C)(C)C
inactive: dose: 100.0 mg/kg/injection, schedule: Q04DX002 (ip), vehicle: Klucel (hydroxypropylcellulose) (HPC) 100 % of control | dose: 200.0 mg/kg/injection, schedule: Q04DX002 (ip), vehicle: Klucel (hydroxypropylcellulose) (HPC) 96 % of control | dose: 400.0 mg/kg/injection, schedule: Q04DX002 (ip), vehicle: Klucel (hydroxypropylcellulose) (HPC) 100 % of control

CCCCC(CCCC)c1ccccn1
inactive: [9] 97 % of control | [10] 97 % of control | [11] 93 % of control

CN(C)C(=O)Nc1cccc(OC(=O)Nc2ccccc2)c1
inactive: [14] 104 % of control | [15] 96 % of control | [16] 96 % of control

NNC(=O)CCc1ccccc1O
inactive: dose: 100.0 mg/kg/injection, schedule: Q01DX009 (ip), vehicle: saline with Tween-80 93 % of control | dose: 200.0 mg/kg/injection, schedule: Q01DX009 (ip), vehicle: saline with Tween-80 91 % of control | dose: 400.0 mg/kg/injection, schedule: Q01DX009 (ip), vehicle: saline with Tween-80 93 % of control
